Measurements: PMC11251039, “Harnessing cholesterol uptake of malaria parasites for therapeutic applications” (EMBO Molecular Medicine, 2024)
“And” between values parts separate entries of the source, which are not always exact repeats. Identical values can stand only once. Like-named read-outs stand apart in the source and are kept apart here.

Experiments:
[1] = tested on: human embryonic kidney cells (HEK293); assay: Human embryonic kidney cell viability assay (MTT); type: cell-based; conditions: Homo sapiens, read-out: IC50, human embryonic kidney cell inhibition (viability)
Description: HEK293 cell viability assays commenced with 5000 cells per well. 10 µg/mL cycloheximide was used as a no-growth control. Metabolic capacity (indicating viability) was measured in an absorbance microplate reader after incubation with 0.45 mg/mL methylthiazolyldiphenyl-tetrazolium bromide (MTT; Sigma M2128) for 2 h followed by crystal solubilisation in SDS. […]
Human Embryonic Kidney Cell Viability Assays:
Human Embryonic Kidney Cell (HEK293) culture:
The HEK293 cell line was maintained under routine culture conditions in DMEM containing 3.7 g/L NaHCO3 supplemented with 10% FBS, 200 μM glutamine, 100 units/mL penicillin, and 100 μg/mL streptomycin at 37 °C in a humidified 5% CO2 incubator.
Cells were detached from a flask using 0.25% Trypsin with 0.2 g/L EDTA (Sigma T4049) and washed with culture media containing no phenol red. Cells were incubated with a serial dilution of each compound, or media/DMSO alone. The protein synthesis inhibitor cycloheximide (Sigma 01810) at 10 µg/mL was used as a positive control to determine background absorbance. 5,000 cells were seeded in each well. After 96 hours, 0.45 mg/mL methylthiazolyldiphenyl-tetrazolium bromide (MTT; Sigma M2128) was added and incubated for a further two hours, before mixing 1.1:1 with 10% w/v sodium dodecyl sulfate (SDS) to solubilise crystals and freezing the plate at -18 °C to stop the assay. […]

[2] = tested on: asexual P. falciparum 3D7 wild-type parasites; assay: P. falciparum asexual growth inhibition assay (SYBR Safe DNA replication); type: cell-based, Plasmodium falciparum; conditions: for P. falciparum asexual growth, percentage of control: replicate values, source data Fig. 2B; for IC90 / IC50: Plasmodium falciparum; for IC50: read-out: IC50, P. falciparum asexual growth inhibition
Summary of the method: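 Sorbitol-synchronised ring-stage cultures at 1% parasitaemia and 1% haematocrit were exposed to 2-fold compound dilutions at 37 °C under microaerophilic conditions for 24, 48 or 72 h. Growth was read by SYBR Safe fluorescence of freeze-thaw lysates, with 200 nM chloroquine or artesunate defining background.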

[3] = tested on: human hepatoma cells (Huh7); assay: Human hepatoma viability assay (CellTiter-Blue); type: cell-based; conditions: for IC50: Homo sapiens, read-out: IC50, human hepatoma inhibition (viability); for Huh7 viability, dose-response data points (Figure 3F): replicate data points
Description: Huh7 hepatoma viability assays were conducted in the same manner as the P. berghei assays, with metabolic capacity (indicating viability) measured with a fluorescence microplate reader after incubation with CellTiter-Blue® (Promega) for 3 h.
Appendix Fraser/Curtis et al. […]
Human Hepatoma Viability Assays:
The Huh7 hepatoma cell line (ATCC) was maintained under routine culture conditions in Dulbecco's Modified Eagle Medium (DMEM) containing 3.7 g/L NaHCO3 supplemented with 10% foetal bovine serum (FBS), 100 units/mL penicillin, and 100 μg/mL streptomycin at 37 °C in a humidified 5% CO2 incubator.
Viability assays were performed in parallel to the P. berghei growth inhibition. 10,000 Huh7 cells were seeded in 96-well and dark-sided microplates (Greiner Bio One) and cultured at 37°C, 5% CO2 and 80% humidity. The next day, the media was replaced with compounds or solvent controls (DMSO) serially diluted in culture media. Media was partially replaced with new drug dilutions over the following two days. After 48 hours, CellTiter-Blue® (Promega) was added according to the manufacturer’s instructions and incubated for 3 hours. Fluorescence intensity was measured with 530/25 ex and 590/20 em in a Synergy HTX plate reader (Agilent).

## COc1cc(NC(C)CCCN)c2ncccc2c1 (stereo not shown) [Primaquine, primaquine, reference compound]
[1]; HEK293, 96 h
  IC50: 10.6 µM
[2]; 0.048828130 uM, 24 h
  P. falciparum asexual growth, percentage of control: 103.5% and 112.3% and 122.3% and 109.6% and 103.8% and 107.6%
[2]; 0.097656250 uM, 24 h
  P. falciparum asexual growth, percentage of control: 133.8% and 115.8% and 109.7% and 98.88% and 101.1% and 114.9%
[2]; 0.195312500 uM, 24 h
  P. falciparum asexual growth, percentage of control: 92.88% and 92.1% and 75.42% and 87.41% and 53.27% and 109.2% and 104.7% and 89.49%
[2]; 0.390625000 uM, 24 h
  P. falciparum asexual growth, percentage of control: 101% and 92.22% and 85.08% and 86.3% and 91.98% and 87.62% and 106.4% and 103.7% and 80.96%
[2]; 0.781250000 uM, 24 h
  P. falciparum asexual growth, percentage of control: 87.28% and 86.95% and 87.11% and 97.7% and 104.2% and 88.59% and 104.3% and 96.91% and 94.25%
[2]; 1.562500000 uM, 24 h
  P. falciparum asexual growth, percentage of control: 104.9% and 96.53% and 90.19% and 106.5% and 37.96% and 92.95% and 112.9% and 86.68% and 94.95%
[2]; 3.125000000 uM, 24 h
  P. falciparum asexual growth, percentage of control: 98.46% and 91.72% and 71.7% and 85.23% and 66.97% and 105.3% and 93.44% and 88.46% and 77.37%
[2]; 6.250000000 uM, 24 h
  P. falciparum asexual growth, percentage of control: 70.33% and 75.07% and 74.44% and 55.89% and 62.38% and 52.2% and 93.44% and 79.9% and 76.14%
[2]; 12.500000000 uM, 24 h
  P. falciparum asexual growth, percentage of control: 59.74% and 51.28% and 54.52% and 22.36% and 27.69% and 24.85% and 101.7% and 67.6% and 71.11%
[2]; 25.000000000 uM, 24 h
  P. falciparum asexual growth, percentage of control: 32.29% and 12.73% and 20.21% and 8.779% and -12.09% and 0.142% and 58.69% and 51.9% and 34.08%
[2]; 50.000000000 uM, 24 h
  P. falciparum asexual growth, percentage of control: 4.003% and -4.24% and -21.02% and -13.23% and -31.85% and -34.48% and 21.18% and 8.951% and 16.84%
[2]; 3D7, 24 h
  IC90: 41 µM
[2]; 3D7, 48 h
  IC50: 6.5 µM
[2]; 3D7, 72 h
  IC90: 11.4 µM
  IC50: 2.6 µM
[2]; 3D7, 24 h, starting at ring stages
  IC50: 11.5 µM
[3]; Huh-7, 48 h, Huh7
  IC50: 18.4 µM

## CC(C)OC(=O)CCC(=O)O[C@H]1CC[C@H]2[C@@H]3CC=C4C[C@@H](O)CC[C@]4(C)[C@H]3CC[C@]12C [C-17-link]
[1]; 96 h, HEK293
  IC50: 43.6 µM
[2]; 1.562500000 uM, 24 h, listed as HJB8a53
  P. falciparum asexual growth, percentage of control: 108.2% and 98.65% and 104.4% and 77.73% and 107.4% and 72.24% and 105.4% and 89.91% and 101.4%
[2]; 3.125000000 uM, 24 h, listed as HJB8a53
  P. falciparum asexual growth, percentage of control: 87.28% and 79.93% and 102.9% and 88.97% and 110.9% and 91.2% and 98.89% and 92.59% and 99.55%
[2]; 6.250000000 uM, 24 h, listed as HJB8a53
  P. falciparum asexual growth, percentage of control: 91.48% and 91.92% and 90.32% and 56.7% and 84% and 91.24% and 89.81% and 87.22% and 88.93%
[2]; 12.500000000 uM, 24 h, listed as HJB8a53
  P. falciparum asexual growth, percentage of control: 92.85% and 68.5% and 79.1% and 86.73% and 62.26% and 77.95% and 77.18% and 79.4% and 77.07%
[2]; 25.000000000 uM, 24 h, listed as HJB8a53
  P. falciparum asexual growth, percentage of control: 63.84% and 71.98% and 51.99% and 71.68% and 75.89% and 90.82% and 60.89% and 60.24% and 75.04%
[2]; 50.000000000 uM, 24 h, listed as HJB8a53
  P. falciparum asexual growth, percentage of control: 21.83% and 36.37% and 18.23% and 26.53% and 42.29% and 44.3% and 28.27% and 41.39% and 35.03%
[2]; 100.000000000 uM, 24 h, listed as HJB8a53
  P. falciparum asexual growth, percentage of control: 3.756% and 9.306% and -2.555% and -31.33% and 5.372% and 1.633% and -19.35% and 8.501% and 11.78%
[2]; 3D7, 24 h, 24 h, starting at ring stages
  IC50: 31.6 µM
[2]; 3D7, 48 h, 48 h
  IC50: 40.2 µM
[2]; 3D7, 72 h, 72 h
  IC50: 30.3 µM
[3]; 0.015241580 uM, listed as HJB8a53, 0.0152416 µM
  Huh7 viability, dose-response data points (Figure 3F): 105.5 and 101.4 and 96.09 and 69.59 and 87 and 84.06 and 99.27 and 98.63 and 104.2
[3]; 0.045724740 uM, listed as HJB8a53, 0.0457247 µM
  Huh7 viability, dose-response data points (Figure 3F): 109.3 and 93.77 and 96.82 and 77.36 and 91.83 and 83.31 and 95.97 and 106.5 and 102.9
[3]; 0.137174210 uM, listed as HJB8a53, 0.137174 µM
  Huh7 viability, dose-response data points (Figure 3F): 96.08 and 92.35 and 97.06 and 75.41 and 90.39 and 89.79 and 95.73 and 112.9 and 104.7
[3]; 0.411522630 uM, listed as HJB8a53, 0.411523 µM
  Huh7 viability, dose-response data points (Figure 3F): 96.93 and 97.72 and 96.92 and 63.65 and 105.3 and 104.5 and 106.5 and 105.9 and 105.2
[3]; 1.234567900 uM, listed as HJB8a53, 1.23457 µM
  Huh7 viability, dose-response data points (Figure 3F): 100.4 and 99.21 and 88.68 and 67.97 and 84.85 and 96.13 and 101.8 and 95.29 and 104.3
[3]; 3.703703700 uM, listed as HJB8a53, 3.7037 µM
  Huh7 viability, dose-response data points (Figure 3F): 100.3 and 96.61 and 91.24 and 63.53 and 95.92 and 87.81 and 99.75 and 109.9 and 102.3
[3]; 11.111111100 uM, listed as HJB8a53, 11.1111 µM
  Huh7 viability, dose-response data points (Figure 3F): 99.33 and 105.1 and 91.64 and 77.62 and 94.71 and 84.32 and 94.43 and 111.6 and 102.6
[3]; 33.333333300 uM, listed as HJB8a53, 33.3333 µM
  Huh7 viability, dose-response data points (Figure 3F): 96.9 and 100.5 and 93.64 and 75.36 and 80.99 and 87.75 and 88.68 and 89.18 and 95.7
[3]; 100.000000000 uM, listed as HJB8a53, 100 µM
  Huh7 viability, dose-response data points (Figure 3F): 79.4 and 72.92 and 76.08 and 55.81 and 65.46 and 66.75 and 56.01 and 61.1 and 53.13
[3]; 48 h, up to 100 µM
  Cytotoxicity to human hepatoma cells: only modest cytotoxicity at high concentrations (>30 µM)
[3]; Huh-7, 48 h
  IC50: > 100 µM
